≈ marks a conversion by molar mass, not a printed value.
Tests used:
[1] = test system: Human alphaherpesvirus 1; assay: Antiviral activity against HSV1 infected in human primary amnion cells assessed as inhibition of virus-induced pathogenic effect; type: functional
[2] = Cytotoxicity against human primary amnion cells assessed as morphological changes by microscopic examination; type: functional
[3] = Therapeutic index, ratio of MTC for human primary amnion cells to lowest drug level causing inhibition of HSV1; settings: read-out: TI
[4] = test system: Human alphaherpesvirus 1; assay: Antiviral activity against HSV1 infected in monkey CV-1 cells assessed as inhibition of plaque formation; type: functional, organism-based; settings: Human alphaherpesvirus 1, CV-1
[5] = test system: Vesicular stomatitis virus; assay: Antiviral activity against VSV infected in BHK cells assessed as inhibition of plaque formation; type: functional, organism-based
[6] = test system: Human immunodeficiency virus 1; assay: Antiviral activity against HIV1 infected in human H9 cells assessed inhibition of viral replication; type: functional, organism-based; settings: Human immunodeficiency virus 1, H9
[7] = Therapeutic index, ratio of inhibition of human H9 cells to EC50 for HIV1; type: cell-based; settings: read-out: TI
[8] = test system: Human immunodeficiency virus 1; assay: Antiviral activity against HIV1 infected in human MT4 cells; type: functional, organism-based; settings: Human immunodeficiency virus 1, MT4
[9] = test system: MT4; assay: Cytotoxicity against human MT4 cells; type: functional; settings: read-out: CD50 (the source's name)
[10] = test system: Human immunodeficiency virus; assay: Antiviral activity against HIV assessed as reduction of viral protein production at 0.27 uM; type: functional; set-up: scale not given: the % may be the effect or the level left
[11] = test system: Human immunodeficiency virus; assay: Antiviral activity against HIV assessed as reduction of viral protein production at 0.52 uM; type: functional; set-up: scale not given: the % may be the effect or the level left
[12] = test system: Human immunodeficiency virus; assay: Antiviral activity against cross-resistant HIV mutant; type: functional; settings: Human immunodeficiency virus 1; read-out: ED50 (the source's name)
[13] = test system: Sindbis virus; assay: Antiviral activity against Sindbis virus in mouse 3T3-L1 cells at 250 nM; type: functional
[14] = test system: Murid betaherpesvirus 1; assay: Antiviral activity against Murine cytomegalovirus in mouse 3T3-L1 cells at 250 nM; type: functional; settings: Murid betaherpesvirus 1, 3T3-L1
[15] = test system: Sindbis virus; assay: Antiviral activity against Sindbis virus in mouse 3T3-L1 cells at 273 nM; type: functional
[16] = test system: Murid betaherpesvirus 1; assay: Antiviral activity against Murine cytomegalovirus in mouse 3T3-L1 cells at 263 nM; type: functional; settings: Murid betaherpesvirus 1, 3T3-L1
[17] = test system: Vesicular stomatitis virus; assay: Antiviral activity against VSV infected in rabbit RL-33 cells; type: functional
[18] = Cytotoxicity against rabbit RL33 cells; type: cell-based, Oryctolagus cuniculus
[19] = test system: Human immunodeficiency virus; assay: Antiviral activity against HIV; type: functional, organism-based; settings: Human immunodeficiency virus 1
[20] = Inhibition of human DNA polymerase alpha
[21] = test system: Sindbis virus; assay: Antiviral activity against Sindbis virus in mouse 3T3-L1 cells at 241 nM; type: functional
[22] = test system: Murid betaherpesvirus 1; assay: Antiviral activity against Murine cytomegalovirus in mouse 3T3-L1 cells at 241 nM; type: functional; settings: Murid betaherpesvirus 1, 3T3-L1

## COc1cc([C@@H]2c3cc4c(cc3[C@H](O)[C@H]3COC(=O)[C@H]23)OCO4)cc(OC)c1O
[1]
  Activity: 0.5 µM
[2]
  Activity: >125 µM
[3]
  selectivity ratio: 250
[4]
  IC50: 100 nM
[5]
  IC50: 250 nM

## COc1ccc(C[C@H]2COC(=O)[C@@H]2Cc2ccc(O)c(O)c2)cc1OC
[6]
  EC50: 420 nM
[7]
  selectivity ratio: 9

## COc1cc([C@@H]2c3cc4c(c(O[C@@H]5O[C@H](CO)[C@@H](O)[C@H](O)[C@H]5O)c3C[C@H]3COC(=O)[C@@H]32)OCO4)cc(OC)c1OC
[1]
  Activity: 17 µM
[2]
  Activity: 52 µM
[3]
  selectivity ratio: 3

## COc1cc([C@H]2c3c(cc(OC)c(OC)c3OC)C[C@@H](C)[C@@H]2C)cc(OC)c1OC
[8]
  EC50: 3200 nM
[9]
  CC50: 34000 nM

## COc1cc([C@@H]2c3cc4c(cc3[C@@H](OC)[C@H]3COC(=O)[C@@H]23)OCO4)cc(OC)c1OC
[4]
  IC50: 900 nM
[5]
  IC50: 2300 nM

## COc1cc([C@@H]2c3cc4c(cc3[C@H](OC)[C@H]3COC(=O)[C@H]23)OCO4)cc(OC)c1OC
[4]
  IC50: 460 nM
[5]
  IC50: 930 nM

## COc1cc([C@@H]2c3cc4c(c(OC)c3C[C@H]3COC(=O)[C@@H]32)OCO4)cc(OC)c1OC
[4]
  IC50: 23 nM
[5]
  IC50: 23 nM

## COc1cc([C@H]2c3c(cc(OC)c(OC)c3OC)C[C@H]3CSC[C@@H]32)cc(OC)c1OC
[8]
  EC50: 800 nM
[9]
  CC50: 58000 nM

## COc1cc([C@H]2c3c(cc4c(c3OC)OCO4)C[C@H]3CSC[C@@H]32)cc(OC)c1OC
[8]
  EC50: 5100 nM
[9]
  CC50: 163000 nM

## COc1cc([C@@H]2c3cc4c(cc3C=C3COC(=O)[C@H]32)OCO4)cc(OC)c1OC
[4]
  IC50: 250 nM
[5]
  IC50: 250 nM

## COC(=O)[C@@H]1C(CO)=Cc2cc3c(cc2[C@H]1c1cc(OC)c(OC)c(OC)c1)OCO3
[4]
  IC50: 460 nM
[5]
  IC50: 460 nM

## COc1cc(C[C@@]2(O)C(=O)OC[C@@H]2Cc2ccc(OC)c(OC)c2)ccc1O
[10]
  Activity: 60%
[11]
  Activity: 60%

## COc1cc([C@@H]2c3cc4c(cc3[C@@H](OC)[C@H]3COC(=O)[C@H]23)OCO4)cc(OC)c1OC
[4]
  IC50: 900 nM
[5]
  IC50: 900 nM

## COc1ccc([C@H]2c3c(cc4c(c3OC)OCO4)C[C@H]3CSC[C@@H]32)cc1OC
[8]
  EC50: 3300 nM
[9]
  CC50: > 840000 nM

## COc1c(O)c(Br)c2c(c1OC)-c1c(c(Br)c(O)c(OC)c1OC)C[C@H](C)[C@H](C)C2
[12]
  EC50: 100 nM

## COc1c2c(cc3c1[C@H](c1ccc(OC(=O)c4ccccc4)c(O)c1)[C@H]1C(=O)OC[C@@H]1C3)OCO2
[8]
  EC50: 5220 nM
[9]
  CC50: > 840000 nM

## COc1c(O)c(Cl)c2c(c1OC)-c1c(c(Cl)c(O)c(OC)c1OC)C[C@H](C)[C@H](C)C2
[12]
  EC50: 100 nM

## COc1cc([C@@H]2c3cc4c(c(O)c3C[C@H]3COC(=O)[C@@H]32)OCO4)cc(OC)c1O
[1]
  Activity: 0.05 µM
[2]
  Activity: 200 µM
[3]
  selectivity ratio: 4000
[13]
  inhibition at 0.25 µM: 6%
[14]
  inhibition at 0.25 µM: 85%

## COc1cc([C@@H]2c3cc4c(cc3[C@@H](O)[C@H]3COC(=O)[C@H]23)OCO4)cc(OC)c1O [4'-DEMETHYLEPIPODOPHYLLOTOXIN]
[1]
  Activity: 13 µM
[2]
  Activity: 13 µM
[3]
  selectivity ratio: 1

## COc1cc([C@@H]2c3cc4c(cc3[C@H](O)[C@H]3COC[C@H]23)OCO4)cc(OC)c1OC [ANHYDROPODOPHYLLOL]
[1]
  Activity: 0.25 µM
[2]
  Activity: >200 µM
[3]
  selectivity ratio: 800

## COc1cc(C[C@H]2C(=O)OC[C@@H]2Cc2ccc(OC)c(OC)c2)ccc1O [ARCTIGENIN]
[10]
  Activity: 60%
[11]
  Activity: 60%
[6]
  EC50: 420 nM
[7]
  selectivity ratio: 9

## COc1cc([C@@H]2c3cc4c(cc3[C@H](O)[C@H]3COC(=O)[C@@H]23)OCO4)cc(OC)c1OC [AXL-1717]
[1]
  Activity: 1.9 µM
[2]
  Activity: 140 µM
[3]
  selectivity ratio: 75

## COc1cc([C@@H]2c3cc4c(c(O)c3C[C@H]3COC(=O)[C@@H]32)OCO4)cc(OC)c1OC [BETA-PELTATIN A]
[1]
  Activity: 0.36 µM
[2]
  Activity: 120 µM
[3]
  selectivity ratio: 333

## COc1cc([C@@H]2c3cc4c(cc3C[C@H]3COC(=O)[C@H]32)OCO4)cc(OC)c1OC [DEOXYPICROPODOPHYLLIN]
[4]
  IC50: 2000 nM
[5]
  IC50: 2000 nM

## COc1cc([C@@H]2c3cc4c(cc3C[C@H]3CSC(=O)[C@@H]32)OCO4)cc(OC)c1OC [DEOXYPODOPHYLLOTOXIN CYCLIC SULFIDE]
[1]
  Activity: 12 µM
[2]
  Activity: 37 µM
[3]
  selectivity ratio: 3

## COc1cc([C@@H]2c3cc4c(cc3C[C@H]3CC(=O)C[C@@H]32)OCO4)cc(OC)c1OC [DEOXYPODOPHYLLOTOXIN CYCLOPENTANONE]
[1]
  Activity: 49 µM
[2]
  Activity: 122 µM
[3]
  selectivity ratio: 2.5

## COc1cc([C@@H]2c3cc4c(cc3C[C@H]3COC(=O)[C@@H]32)OCO4)cc(OC)c1OC [DESOXYPODOPHYLLOTOXIN]
[1]
  Activity: 0.038 µM
[2]
  Activity: >25 µM
[3]
  selectivity ratio: 667
[4]
  IC50: 25 nM
[5]
  IC50: < 25 nM

## COc1cc2c(O)c3c(c(-c4ccc5c(c4)OCO5)c2cc1OC)C(=O)OC3 [DIPHYLLIN]
[15]
  inhibition at 0.273 µM: 18%
[16]
  inhibition at 0.263 µM: 11%
[17]
  MIC: 0.16 µM (≈ 0.0609 µg/mL)
[18]
  Activity: 85 µM

## COc1cc([C@@H]2c3cc4c(cc3[C@@H](OC(C)=O)[C@H]3CSC(=O)[C@H]23)OCO4)cc(OC)c1OC [EPIPODOPHYLLOTOXIN ACETATE]
[4]
  IC50: 440 nM
[5]
  IC50: 220 nM

## COc1cc([C@@H]2c3cc4c(cc3[C@@H](O)[C@H]3COC(=O)[C@H]23)OCO4)cc(OC)c1OC [EPIPODOPHYLLOTOXIN]
[1]
  Activity: 1.6 µM
[2]
  Activity: 24 µM
[3]
  selectivity ratio: 15

## COc1cc([C@@H]2c3cc4c(cc3[C@@H](O[C@@H]3O[C@@H]5CO[C@@H](C)O[C@H]5[C@H](O)[C@H]3O)[C@H]3COC(=O)[C@H]23)OCO4)cc(OC)c1O [ETOPOSIDE]
[1]
  Activity: 85 µM
[2]
  Activity: 100 µM
[3]
  selectivity ratio: 1.2

## COc1cc2c(c(OC)c1OC)-c1c(cc3c(c1OC)OCO3)[C@H](OC(=O)c1ccccc1)[C@@](C)(O)[C@@H](C)C2 [GOMISIN G]
[19]
  IC50: 11 nM

## COc1cc2c(OC)c3c(c(-c4ccc5c(c4)OCO5)c2cc1OC)C(=O)OC3 [JUSTICIDIN A]
[17]
  MIC: 0.65 µM (≈ 0.256 µg/mL)
[18]
  Activity: 166 µM

## COc1cc2c(c(OC)c1OC)-c1c(cc3c(c1OC)OCO3)C[C@@H](C)[C@@H](C)C2 [KADSURANIN]
[19]
  IC50: 2000 nM

## COCc1cc2cc(OC)c(OC)cc2c(-c2ccc3c(c2)OCO3)c1C=O [PHYLLAMYRICIN B]
[20]
  IC50: 3500 nM

## COc1cc([C@@H]2c3cc4c(cc3[C@H](O)[C@H]3COC(=O)[C@H]23)OCO4)cc(OC)c1OC [PODOFILOX]
[1]
  Activity: 0.024 µM
[2]
  Activity: 140 µM
[3]
  selectivity ratio: 6000
[21]
  inhibition at 0.241 µM: 3%
[22]
  inhibition at 0.241 µM: 74%
[4]
  IC50: 50 nM
[5]
  IC50: 100 nM

## COc1cc2cc3c(c(-c4ccc5c(c4)OCO5)c2cc1OC)COC3=O [RETROJUSTICIDIN B]
[20]
  IC50: 5500 nM

## COc1c2c(cc3c1-c1c(cc4c(c1OC)OCO4)C[C@H](C)[C@H](C)C3)OCO2 [SCHISANDRIN C]
[19]
  IC50: 3100 nM

— ChEMBL document CHEMBL1151291, “Antiviral activity of lignans” (J Nat Prod, 1998)
